Source: patent US20230255974A1, “USE OF THYROMIMETICS FOR THE TREATMENT OF CANCER” (THE UNIVERSITY OF VERMONT, priority 2020, published 2023)
Entries after “also recorded” stand apart in the source; their conditions may differ. Read-outs that look alike come from different tables or passages of the source.

Assays:
SW1736 = experiment: Cell growth with STAT1 activator 2-NP; format: cell-based, human; conditions: 0-50 μM 2-NP, 24 hours
Procedure: (§1) Growth Assays. Cell growth was measured either through live cell imaging or by cell counting at discrete points. Live cell imaging was used to assess the growth kinetics of SW-EV and SW-TRβ. To perform live cell imaging, 5000 cells were plated per well in 24 well plates. After 24 hours in phenol red free, charcoal stripped media, media was supplemented with either 10^−8 M T3 or equivolume vehicle (NaOH). Every two hours cells were imaged with a Lionheart automated microscope (BioTek) and quantified with Gen5 software (BioTek). The cells entered the log phase of growth at approximately 48 hours, and the portion of the curve following this point was used to calculate the doubling time of the cells. In order to measure growth manually, 25,000 cells were plated per well in a six well plate. Cells were grown in full thyroid media with the addition of 2-(1,8-Naphthyridin-2-yl)phenol (2-NP) (Abcam) or vehicle (DMSO). Every 24 hours cell counts were assessed by hemocytometer.
(§2) STAT1 has anti-proliferative activity, raising the question whether it can be exploited pharmacologically to reduce ATC growth. Baseline expression of key genes in the JAK1-STAT1 pathway and TR isoform levels (TRβ and TRα) in 3 additional anaplastic thyroid cancer cell lines are illustrated in FIG. 10C.

OCUT-2 = experiment: Cell growth with STAT1 activator 2-NP; format: cell-based; conditions: 0-50 μM 2-NP, 24 hours
Procedure: as §1, §2

KTC-2 [1] = experiment: Cell growth with STAT1 activator 2-NP; format: cell-based; conditions: 0-50 μM 2-NP, 24 hours
Procedure: as §1, §2

[2] = test system: SW1736 cells (SW-EV, SW-TRβ); experiment: Buparlisib with or without GC-1, cell viability/growth, 24 hr; format: cell-based, human
Procedure: SW1736 cells transduced with lentiviral vector (EV) or lentiviral vector containing TRβ (TRβ) were treated with buparlisib (0 μM, 0.1 μM, 1 μM, or 10 μM) for 24 hours.

[3] = test system: MDA-MB-468 cells (EV, TRβ); experiment: Mammosphere growth, triple negative breast cancer cells; format: cell-based
Excerpt: Data are mean+/−SD; * indicates p<0.05 determined by t-test.

[4] = test system: MDA-MB-468 cells (EV, TRβ); experiment: Relative cell growth by cell counting, triple negative breast cancer cells; format: cell-based; conditions: MDA-MB-468-TRβ, 10 nM GC-1, 8 days
Excerpt: MDA-MB-468 cells were transduced with empty vector (EV) (FIGS. 29A, 29C) or thyroid hormone receptor beta (TRβ) (FIGS. 29B, 29D) and maintained in complete media. […] Data are mean+/−SD; * indicates p<0.05 determined by t-test.

KTC-2 [5] = experiment: Xenograft model of anaplastic thyroid tumor; format: in vivo, SCID female mice; conditions: KTC-2 subcutaneous xenograft, GC-1 0.3 mg/Kg, Buparlisib 5 mg/Kg, approximately 6 week study
Procedure: Doses of Buparlisib tested in xenograft studies range from 5 mg/Kg to 20 mg/Kg.
Drugs were prepared at concentrations suitable for intraperitoneal (i.p.) injection of 5 μL/g body weight. […] Drug stocks were prepared by dissolving sobetirome and Sob-AM2 at 1 mg/mL in dimethyl sulfoxide (DMSO). […] Vehicles were prepared with 20% DMSO in saline.”
Buparlisib was used as a 5 mg/kg buparlisib treatment (recommended by Novartis). Buparlisib suspension was prepared in 0.5% methyl cellulose and 0.5% Tween20.
Tumors were established by subcutaneous injection of 5×10^6 tumor cells in 100 μL of phosphate-buffered saline into the flank region into SCID female mice. Thyroid cancer occurs in females ˜4× more often than in males. As funding is available; both males and females will be tested.
The study was approximately a 6 week study. Tumor mass was measured, and tumors and tissues were saved for IHC and RNAseq.

[6] = test system: SW1736, 8505C, OCUT2, and KTC-2 cells; experiment: Cell migration by scratch (wound healing) assay, inhibitors with or without GC-1; format: cell-based, human
Procedure: Migration Assay. Cell migration was determined by wound healing assay. Cells were plated and allowed to grow to 100% confluency. Four hours prior to scratching, cells were treated with […] Mitomycin C. A scratch was performed with a P1000 pipette tip and debris was washed away with PBS. […] Images were obtained at 0, 16, 24, 48, and 72 hours or until 100% wound closure, depending on the cell type. The wound closure was measured using the ImageJ macro “Wound Healing Tool” (https://github.com/MontpellierRessourcesImagerie/imagej_macros_and_scripts/wiki/Wound-Healing-Tool). Percent closure was calculated relative to the area of the initial scratch.

[7] = test system: SW1736 cells (SW-EV, SW-TRβ); conditions: SW-TRβ1, GC-1 10^−8M
Procedure: (§3) Tumorsphere Assay. Cancer stem cell tumorspheres formed from ATC cells (thyrospheres) were used to assess self-renewal and sphere-forming efficiency. For generating thyrospheres, adherent monolayer cells were dissociated with Trypsin-EDTA, and single cells were moved to round-bottom ultra-low attachment 24-well plates at a density of 1000 cells/well (Corning). […] Where indicated, adherent cells were treated with 0.5 μM Buparlisib, 0.5 μM Alpelisib, 1 nM Palbociclib, 5 μM Sorafenib, or vehicle for 72 hours prior to thyrosphere-forming assay. […] Thyrospheres grew for seven days and were then counted with an inverted microscope.

MCF7 = experiment: Mammosphere growth, Luminal A breast cancer cells; format: cell-based
[8] = test system: MDA-MB-468 cells (EV, TRβ); conditions: triple negative breast cancer cells with low TRβ expression
Procedure: Triple negative breast cancer were examined next. […] TNBC cancers and other advanced solid tumors have lower endogenous levels of expression of TRβ. […] Cell migration was measured by scratch assay (FIG. 28). […] Data are mean+/−SD; *indicates p<0.05 determined by t-test.

[9] = test system: SW1736 cells (SW-EV, SW-TRβ); format: cell-based, human; conditions: for ATC cell death: GC-1 10^−8 M; for reduction in cell growth (AUC of growth curve): GC-1 10^−8M, 4 days
[10] = test system: SW1736 cells (SW-EV, SW-TRβ); experiment: Apoptosis assay (PARP1 and caspase 3 cleavage, immunoblot); format: cell-based, human; conditions: SW-TRβ
Excerpt: Immunoblot Analysis. […] Proteins were resolved by polyacrylamide gel electrophoresis on 10% sodium dodecyl sulfate gels EC60752 (Life Technologies) and immobilized onto nitrocellulose membranes (GE Healthcare) by electroblot (Bio-Rad Laboratories). Specific proteins were detected by immunoblotting with the indicated antibodies (Table 4); immunoreactive proteins were detected by enhanced chemiluminescence (Thermo Scientific) on a ChemiDoc XRS+ (Bio-Rad Laboratories).
Apoptosis Assay. Cells were plated at a density of 50,000 cells/well and treated with vehicle (1 N NaOH) or 10^−8 M T3. After 5 days the cells were lysed for analysis by immunoblot. Poly (ADP-ribose) polymerase 1 (PARP1) and Caspase 3 cleavage were assessed to measure apoptotic signaling.
Immunoblot Analysis. […] Proteins were resolved by polyacrylamide gel electrophoresis on 10% sodium dodecyl sulfate gels EC60752 (Thermo Fisher Scientific) and immobilized onto nitrocellulose membranes (GE Healthcare, Chicago, Ill., USA) by electroblot (Bio-Rad Laboratories, Hercules, Calif., USA). Specific proteins were detected by immunoblotting with the indicated antibodies (Table 4); immunoreactive proteins were detected by enhanced chemiluminescence (Thermo Scientific) on a ChemiDoc XRS+ (Bio-Rad Laboratories).

[11] = test system: SW1736, 8505C, OCUT2, and KTC-2 cells; conditions: GC-1 concentrations higher than 10^-8M
NthyOri = experiment: LY294002 growth of normal-like thyroid cells; format: cell-based; conditions: normal-like thyroid cells NthyOri in which TRβ is expressed
[12] = test system: SW1736 cells (SW-EV, SW-TRβ); experiment: LY294002 inhibition of ATC cell migration; format: cell-based, human; conditions: presence of liganded TRβ (SW-TRβ vs SW-EV)
Procedure: Migration Assay. Cell migration was determined by wound healing assay. Cells were plated and allowed to grow to 100% confluency. Two hours prior to scratching, cells were treated with […] Mitomycin C. A scratch was performed with a P1000 pipette tip and debris was washed away with PBS. Migration media was supplemented with 10^−8 M T3. Images were obtained at 0, 24, 48, and 72 hours. Wound closure was measured using ImageJ macro “Wound Healing Tool” (http://dev.mri.cnrs.fr/projects/imagej-macros/wiki/Wound_Healing_Tool). Values were normalized so that the initial scratch was 0% closure.
TRβ also enhances PI3K inhibitor LY294002 inhibition of ATC cell growth and cell migration. […] LY294002 induces a 50% reduction in growth of normal-like thyroid cells NthyOri in which TRβ is expressed. […] Liganded TRβ suppresses ATC cell growth and migration as a tumor suppressor and critically enhances the effectiveness of a potential therapeutic agent.

PI3K = PI3K activity by pAkt and p mTOR immunoblot; format: cell-based, human; conditions: SW-TRβ vs SW-EV, LY294002 24 hr, T3 10^−8 M
Procedure: Immunoblot Analysis. Proteins were isolated from whole cells in lysis buffer (20 mM Tris-HCl [pH 8], 137 mM NaCl, 10% glycerol, 1% Triton X-100, and 2 mM EDTA) containing Protease Inhibitor Cocktail 78410 (Thermo Scientific). Proteins were resolved by polyacrylamide gel electrophoresis on 10% sodium dodecyl sulfate gels EC60752 (Life Technologies) and immobilized onto nitrocellulose membranes (GE Healthcare) by electroblot (Bio-Rad Laboratories). Specific proteins were detected by immunoblotting with the indicated antibodies (Table 4); immunoreactive proteins were detected by enhanced chemiluminescence (Thermo Scientific) on a ChemiDoc XRS+ (Bio-Rad Laboratories).

[13] = test system: SW1736 cells (SW-EV, SW-TRβ); experiment: LY294002 inhibition of ATC cell growth; format: cell-based; conditions: Homo sapiens
[14] = test system: SW1736, 8505C, OCUT2, and KTC-2 cells; experiment: Thyrosphere outgrowth, unmodified ATC cell lines; format: cell-based, human; conditions: inhibitor three days before plating, or 10 nM GC-1 for 7 days
Procedure: as §3

Oc1ccccc1-c1ccc2cccnc2n1 [2-NP, 2-(1,8-naphthyridin-2-yl)phenol]
reduction in cell growth (SW1736): recapitulates the effect of T3-TRβ; also recorded: most responsive
reduction in cell growth (OCUT-2): recapitulates the effect of T3-TRβ
reduction in cell growth (KTC-2 [1]): recapitulates the effect of T3-TRβ

Nc1cc(C(F)(F)F)c(-c2cc(N3CCOCC3)nc(N3CCOCC3)n2)cn1 [Buparlisib, 5-(2,6-dimorpholin-4-ylpyrimidin-4-yl)-4-(trifluoromethyl)pyridin-2-amine]
toxicity to cells ([2]; 10 μM): toxic
cell viability ([2]; SW-EV, buparlisib alone 0-10 μM): concentration dependent decrease in cell viability
sensitivity of cell growth to buparlisib ([2]; SW-TRβ plus GC-1 10^−8M): increase the sensitivity to buparlisib at 0.1 and 1 μM
EC50, cell viability ([2]; SW-TRβ vs SW-EV): significantly reduced EC50
mammosphere growth, Buparlisib in the presence of GC-1 ([3]; 10 nM GC-1, 5 days): increases the efficacy of Buparlisib to reduced mammosphere growth
reduction of effective Buparlisib in the presence of GC-1 ([3]; mammospheres from MDA-MB-468-TRβ cells): 50%
cell growth, combination with GC-1 [4]: synergistic effect to reduce cell growth
metastases (KTC-2 [5]): detectable metastases to the heart
tumor growth (KTC-2 [5]): smaller non-nodular growth
wound closure, inhibitor combined with GC-1 ([6]; KTC-2 cells, GC-1 10^−8M plus 0.5 μM Buparlisib): exception

Cc1cc(OCC(=O)O)cc(C)c1Cc1ccc(O)c(C(C)C)c1 [GC-1, 2-[4-[(4-hydroxy-3-propan-2-ylphenyl)methyl]-3,5-dimethylphenoxy]acetic acid]
reduction in thyrosphere formation [7]: greater than 80%
mammosphere formation (MCF7; MCF7, 10 nM GC-1 alone): could reduce mammosphere formation
cell migration [8]: able to slow migration
metastases (KTC-2 [5]): no visually detectable metastases
tumor vascularization (KTC-2 [5]): minimal vascularization
ATC cell death ([9]; SW1736 with endogenous TRβ (EV)): induces ATC cell death
reduction in cell growth (AUC of growth curve) ([9]; SW-EV): 50%
ATC cell death ([9]; SW-TRβ (lentiviral transduction)): amplified with higher levels of TRβ
reduction in cell growth (AUC of growth curve) ([9]; SW-TRβ): 75%
cleaved PARP and cleaved caspase 3 ([10]; GC-1, 5 days): significantly increased the presence of cleaved PARP and cleaved caspase 3
apoptosis (cleaved PARP and caspase) ([10]; five days): induces apoptosis
cell toxicity [11]: cause cell toxicity
wound closure, agent alone ([6]; GC-1 10^−8M or inhibitor alone): able to prevent wound closure of all tumor cell lines with similar success as each inhibitor alone

O=c1cc(N2CCOCC2)oc2c(-c3ccccc3)cccc12 [LY294002, 2-(morpholin-4-yl)-8-phenyl-4H-chromen-4-one]
reduction in growth (NthyOri): 50%
inhibition of ATC cell migration [12]: enhances LY294002 inhibition of ATC cell migration
pAkt vs total Akt and p mTOR vs total mTOR (PI3K): decreased pAkt compared with total Akt and decreased p mTOR compared with total mTOR
EC50 ([13]; SW-1736, SW-EV (no TRβ re-expression), T3): 5.21 µM
EC50 ([13]; SW-1736, SW-EV, unit inferred): 5.21 µM
EC50 ([13]; SW-1736, SW-TRβ, liganded (T3)): 1.13 µM
EC50 ([13]; SW-1736, SW-TRβ, liganded (T3), unit inferred): 1.13 µM

CC(=O)c1c(C)c2cnc(Nc3ccc(N4CCNCC4)cn3)nc2n(C2CCCC2)c1=O [Palbociclib, 6-acetyl-8-cyclopentyl-5-methyl-2-[(5-piperazin-1-ylpyridin-2-yl)amino]pyrido[6,5-d]pyrimidin-7-one]
cell growth, combination with GC-1 [4]: synergistic effect to reduce cell growth

CNC(=O)c1cc(Oc2ccc(NC(=O)Nc3ccc(Cl)c(C(F)(F)F)c3)cc2)ccn1 [Sorafenib, 4-[4-[[4-chloro-3-(trifluoromethyl)phenyl]carbamoylamino]phenoxy]-N-methylpyridine-2-carboxamide]
thyrosphere formation/outgrowth, agent alone [14]: most effective overall

CC/C(=C(\c1ccccc1)c1ccc(OCCN(C)C)cc1)c1ccccc1 [tamoxifen]
effect of inhibitor in the presence of GC-1 (MCF7; MCF7, 10 nM GC-1, 5 days): enhanced the effect
